From patent US20050197350A1, “Novel quinoline, tetrahydroquinazoline, and pyrimidine derivatives and methods of treatment related to the use thereof” (TAISHO PHARMACEUTICAL CO., LTD., priority 2003, published 2005)

The compounds below were run on MCH receptors (assay: MCH receptor activity class (method not given)). Conditions: class 1-3 by percent of control at 10^-7 M or IC50.

Which class does the source give for `COc1cccc(C(=O)N[C@H]2CC[C@@H](Nc3nc4c(c(N(C)C)n3)CCCC4)CC2)c1` [compound 456] here?
The class was 1 (Class 1: The value of percent of control at 10^−7 M was less than 40% or the value of IC50 was less than 50 nM.).

For `CN(C)c1nc(N[C@H]2CC[C@@H](NC(=O)c3cccc(Br)c3)CC2)nc2c1CCCC2` [compound 457], which class is on record?
Its class is 1 (Class 1: The value of percent of control at 10^−7 M was less than 40% or the value of IC50 was less than 50 nM.).

Which class does the source give for `CN(C)c1nc(N[C@H]2CC[C@@H](NC(=O)c3ccc(Br)cc3)CC2)nc2c1CCCC2` [compound 458] here?
The class was 2 (Class 2: The value of percent of control at 10^−7 M was from 40% to 60% or the value of IC′50 was from 50 nM to 200 nM.).

`CN(C)c1nc(N[C@H]2CC[C@@H](NC(=O)c3ccc4nonc4c3)CC2)nc2c1CCCC2` [compound 459] was tested. Which class did it give?
Its class is 1 (Class 1: The value of percent of control at 10^−7 M was less than 40% or the value of IC50 was less than 50 nM.).

With `CN(C)c1nc(N[C@H]2CC[C@@H](NC(=O)c3cccc(Cl)c3)CC2)nc2c1CCCC2` [compound 460] as the compound, how does the class read?
The class was 1 (Class 1: The value of percent of control at 10^−7 M was less than 40% or the value of IC50 was less than 50 nM.).

For `CN(C)c1nc(N[C@H]2CC[C@@H](NC(=O)c3ccc(Cl)cc3)CC2)nc2c1CCCC2` [compound 461], which class is on record?
The class was 1 (Class 1: The value of percent of control at 10^−7 M was less than 40% or the value of IC50 was less than 50 nM.).

For `CN(C)c1nc(N[C@H]2CC[C@@H](NC(=O)/C=C/c3ccccc3)CC2)nc2c1CCCC2` [compound 462], which class is on record?
The class was 3 (Class 3 The value of percent of control at 10^−7 M was more than 60% or the value of IC50 was more than 200 nM.).

With `CN(C)c1nc(N[C@H]2CC[C@@H](NC(=O)c3ccc(Cl)c([N+](=O)[O-])c3)CC2)nc2c1CCCC2` [compound 463] as the compound, how does the class read?
Its class is 1 (Class 1: The value of percent of control at 10^−7 M was less than 40% or the value of IC50 was less than 50 nM.).

For `CN(C)c1nc(N[C@H]2CC[C@@H](NC(=O)Cc3ccc(Cl)cc3)CC2)nc2c1CCCC2` [compound 464, 2-(4-chlorophenyl)-N-(cis-4-{[4-(dimethylamino)-5,6,7,8-tetrahydroquinazolin-2-yl]amino}cyclohexyl)acetainide], which class is on record?
The class was 1 (Class 1: The value of percent of control at 10^−7 M was less than 40% or the value of IC50 was less than 50 nM.).

`CN(C)c1nc(N[C@H]2CC[C@@H](NC(=O)c3cccc(C#N)c3)CC2)nc2c1CCCC2` [compound 465] was tested. Which class did it give?
Its class is 1 (Class 1: The value of percent of control at 10^−7 M was less than 40% or the value of IC50 was less than 50 nM.).

Which class does the source give for `CN(C)c1nc(N[C@H]2CC[C@@H](NC(=O)c3cc(Cl)cc(Cl)c3)CC2)nc2c1CCCC2` [compound 466, 3,5-dichloro-N-(cis-4-{[4-(dimethylamino)-5,6,7,8-tetrahydroquinazolin-2-yl]amino}cyclohexyl)benzamide] here?
The class was 1 (Class 1: The value of percent of control at 10^−7 M was less than 40% or the value of IC50 was less than 50 nM.).

Which class does the source give for `CN(C)c1nc(N[C@H]2CC[C@@H](NC(=O)c3ccc(Cl)c(Cl)c3)CC2)nc2c1CCCC2` [compound 467, 3,4-dichloro-N-(cis-4-{[4-(dimethylamino)-5,6,7,8-tetrahydroquinazolin-2-yl]amino}cyclohexyl)benzamide] here?
The class was 1 (Class 1: The value of percent of control at 10^−7 M was less than 40% or the value of IC50 was less than 50 nM.).

For `CN(C)c1nc(N[C@H]2CC[C@@H](NC(=O)C(c3ccccc3)c3ccccc3)CC2)nc2c1CCCC2` [compound 468], which class is on record?
The class was 1 (Class 1: The value of percent of control at 10^−7 M was less than 40% or the value of IC50 was less than 50 nM.).

For `CN(C)c1nc(N[C@H]2CC[C@@H](NC(=O)c3ccc(F)c(F)c3)CC2)nc2c1CCCC2` [compound 469], which class is on record?
The class was 1 (Class 1: The value of percent of control at 10^−7 M was less than 40% or the value of IC50 was less than 50 nM.).

With `CN(C)c1nc(N[C@H]2CC[C@@H](NC(=O)c3cc(F)cc(F)c3)CC2)nc2c1CCCC2` [compound 470] as the compound, how does the class read?
The class was 1 (Class 1: The value of percent of control at 10^−7 M was less than 40% or the value of IC50 was less than 50 nM.).

For `COc1ccc(OC)c(CC(=O)N[C@H]2CC[C@@H](Nc3nc4c(c(N(C)C)n3)CCCC4)CC2)c1` [compound 471], which class is on record?
Its class is 3 (Class 3 The value of percent of control at 10^−7 M was more than 60% or the value of IC50 was more than 200 nM.).

Which class does the source give for `CCSc1ncccc1C(=O)N[C@H]1CC[C@@H](Nc2nc3c(c(N(C)C)n2)CCCC3)CC1` [compound 472] here?
The class was 3 (Class 3 The value of percent of control at 10^−7 M was more than 60% or the value of IC50 was more than 200 nM.).

`CN(C)c1nc(N[C@H]2CC[C@@H](NC(=O)c3ccc(F)cc3)CC2)nc2c1CCCC2` [compound 473] was tested. Which class did it give?
The class was 1 (Class 1: The value of percent of control at 10^−7 M was less than 40% or the value of IC50 was less than 50 nM.).

How did the class turn out when `CN(C)c1nc(N[C@H]2CC[C@@H](NC(=O)c3cc(F)cc(C(F)(F)F)c3)CC2)nc2c1CCCC2` [compound 474] was run?
Its class is 1 (Class 1: The value of percent of control at 10^−7 M was less than 40% or the value of IC50 was less than 50 nM.).

For `CN(C)c1nc(N[C@H]2CC[C@@H](NC(=O)c3cc(F)c(Cl)cc3Cl)CC2)nc2c1CCCC2` [compound 475], which class is on record?
Its class is 3 (Class 3 The value of percent of control at 10^−7 M was more than 60% or the value of IC50 was more than 200 nM.).

For `CCCCCC(=O)N[C@H]1CC[C@@H](Nc2nc3c(c(N(C)C)n2)CCCC3)CC1` [compound 476], which class is on record?
The class was 2 (Class 2: The value of percent of control at 10^−7 M was from 40% to 60% or the value of IC′50 was from 50 nM to 200 nM.).

`CN(C)c1nc(N[C@H]2CC[C@@H](NC(=O)c3ccc(I)cc3)CC2)nc2c1CCCC2` [compound 477] was tested. Which class did it give?
The class was 3 (Class 3 The value of percent of control at 10^−7 M was more than 60% or the value of IC50 was more than 200 nM.).

With `CSc1ncccc1C(=O)N[C@H]1CC[C@@H](Nc2nc3c(c(N(C)C)n2)CCCC3)CC1` [compound 478] as the compound, how does the class read?
The class was 3 (Class 3 The value of percent of control at 10^−7 M was more than 60% or the value of IC50 was more than 200 nM.).

With `Cc1ccc(C(=O)N[C@H]2CC[C@@H](Nc3nc4c(c(N(C)C)n3)CCCC4)CC2)cc1[N+](=O)[O-]` [compound 479] as the compound, how does the class read?
The class was 1 (Class 1: The value of percent of control at 10^−7 M was less than 40% or the value of IC50 was less than 50 nM.).

`CN(C)c1nc(N[C@H]2CC[C@@H](NC(=O)c3cccc([N+](=O)[O-])c3)CC2)nc2c1CCCC2` [compound 480] was tested. Which class did it give?
The class was 1 (Class 1: The value of percent of control at 10^−7 M was less than 40% or the value of IC50 was less than 50 nM.).

`CN(C)c1nc(N[C@H]2CC[C@@H](NC(=O)Cc3ccccc3)CC2)nc2c1CCCC2` [compound 481] was tested. Which class did it give?
Its class is 3 (Class 3 The value of percent of control at 10^−7 M was more than 60% or the value of IC50 was more than 200 nM.).

Which class does the source give for `CN(C)c1nc(N[C@H]2CC[C@@H](NC(=O)C3C[C@H]3c3ccccc3)CC2)nc2c1CCCC2` (stereo partly drawn) [compound 482, (2R)-N-(cis-4-{[4-(dimethylamino)-5,6,7,8-tetrahydroquinazolin-2-yl]amino}cyclohexyl)-2-phenylcyclopropanecarboxamide] here?
Its class is 2 (Class 2: The value of percent of control at 10^−7 M was from 40% to 60% or the value of IC′50 was from 50 nM to 200 nM.).

`CN(C)c1nc(N[C@H]2CC[C@@H](NC(=O)c3ccc4c(c3)OCO4)CC2)nc2c1CCCC2` [compound 483] was tested. Which class did it give?
Its class is 3 (Class 3 The value of percent of control at 10^−7 M was more than 60% or the value of IC50 was more than 200 nM.).

`Cc1cccc(C(=O)N[C@H]2CC[C@@H](Nc3nc4c(c(N(C)C)n3)CCCC4)CC2)c1` [compound 486] was tested. Which class did it give?
The class was 1 (Class 1: The value of percent of control at 10^−7 M was less than 40% or the value of IC50 was less than 50 nM.).

Which class does the source give for `Cc1ccc(C(=O)N[C@H]2CC[C@@H](Nc3nc4c(c(N(C)C)n3)CCCC4)CC2)cc1` [compound 487] here?
Its class is 2 (Class 2: The value of percent of control at 10^−7 M was from 40% to 60% or the value of IC′50 was from 50 nM to 200 nM.).

How did the class turn out when `CN(C)c1nc(N[C@H]2CC[C@@H](NC(=O)c3cccs3)CC2)nc2c1CCCC2` [compound 488, N-(cis-4-{[4-(dimethylamino)-5,6,7,8-tetrahydroquinazolin-2-yl]amino}cyclohexyl)thiophene-2-carboxamide] was run?
The class was 3 (Class 3 The value of percent of control at 10^−7 M was more than 60% or the value of IC50 was more than 200 nM.).

For `CN(C)c1nc(N[C@H]2CC[C@@H](NC(=O)Cc3cccs3)CC2)nc2c1CCCC2` [compound 489], which class is on record?
The class was 3 (Class 3 The value of percent of control at 10^−7 M was more than 60% or the value of IC50 was more than 200 nM.).

Which class does the source give for `CN(C)c1nc(N[C@H]2CC[C@@H](NC(=O)c3cccc(OC(F)(F)F)c3)CC2)nc2c1CCCC2` [compound 490] here?
Its class is 2 (Class 2: The value of percent of control at 10^−7 M was from 40% to 60% or the value of IC′50 was from 50 nM to 200 nM.).

Which class does the source give for `CN(C)c1nc(NC2CCC(NC(=O)OCc3ccccc3)CC2)nc2c1CCCC2` (stereo not shown) [compound 491] here?
The class was 3 (Class 3 The value of percent of control at 10^−7 M was more than 60% or the value of IC50 was more than 200 nM.).

Which class does the source give for `CN(C)c1nc(NC2CCC(NC(=O)OCc3ccc([N+](=O)[O-])cc3)CC2)nc2c1CCCC2` (stereo not shown) [compound 492] here?
The class was 3 (Class 3 The value of percent of control at 10^−7 M was more than 60% or the value of IC50 was more than 200 nM.).

How did the class turn out when `Cc1cc(C(=O)N[C@H]2CC[C@@H](Nc3nc4c(c(N(C)C)n3)CCCC4)CC2)ccc1Br` [compound 493] was run?
The class was 2 (Class 2: The value of percent of control at 10^−7 M was from 40% to 60% or the value of IC′50 was from 50 nM to 200 nM.).

`CN(C)c1nc(N[C@H]2CC[C@@H](NC(=O)c3cccc(I)c3)CC2)nc2c1CCCC2` [compound 494] was tested. Which class did it give?
The class was 1 (Class 1: The value of percent of control at 10^−7 M was less than 40% or the value of IC50 was less than 50 nM.).

For `CN(C)c1nc(N[C@H]2CC[C@@H](NC(=O)c3cccc(Cl)c3F)CC2)nc2c1CCCC2` [compound 495], which class is on record?
Its class is 3 (Class 3 The value of percent of control at 10^−7 M was more than 60% or the value of IC50 was more than 200 nM.).

For `Cc1ccc(C(=O)N[C@H]2CC[C@@H](Nc3nc4c(c(N(C)C)n3)CCCC4)CC2)c(F)c1F` [compound 496], which class is on record?
Its class is 3 (Class 3 The value of percent of control at 10^−7 M was more than 60% or the value of IC50 was more than 200 nM.).

How did the class turn out when `CN(C)c1nc(N[C@H]2CC[C@@H](NC(=O)c3ccc(F)cc3Cl)CC2)nc2c1CCCC2` [compound 497] was run?
The class was 2 (Class 2: The value of percent of control at 10^−7 M was from 40% to 60% or the value of IC′50 was from 50 nM to 200 nM.).
